One data set has as its system SK-MEL-5. The data set can be described thus: Cytotoxicity against human SK-MEL-5 cells assessed as inhibition of cell growth at 10 uM. The data set is classed as functional.
A further data set deals with HOP-92. The data set can be described thus: Cytotoxicity against human HOP-92 cells assessed as inhibition of cell growth at 10 uM. The format is functional.
The subject of another data set is MOLT-4. The data set can be described thus: Cytotoxicity against human MOLT-4 cells assessed as inhibition of cell growth at 10 uM. The data set is classed as functional.
A further data set deals with Enterococcus faecalis. Nature of the data set: Antibacterial activity against Enterococcus faecalis assessed as inhibition of bacterial growth by two-fold serial broth dilution method. The format is functional.
The next data set has as its system Bacillus subtilis. The data set can be described thus: Antibacterial activity against Bacillus subtilis assessed as inhibition of bacterial growth by two-fold serial broth dilution method. The data set is classed as functional. On the technique in general: In broth dilution the organism is exposed to a series of concentrations in liquid medium.
The next data set has as its system Listeria. Nature of the data set: Antibacterial activity against Listeria sps. assessed as inhibition of bacterial growth by two-fold serial broth dilution method. The data set is classed as functional.
The next data set concerns Staphylococcus aureus. The data set can be described thus: Antibacterial activity against Staphylococcus aureus assessed as inhibition of bacterial growth by two-fold serial broth dilution method. The format is functional.
The subject of a further data set is Escherichia coli. The data set can be described thus: Antibacterial activity against Escherichia coli assessed as inhibition of bacterial growth by two-fold serial broth dilution method. The data set is classed as functional.
The next data set has as its system Salmonella enterica. The data set can be described thus: Antibacterial activity against Salmonella enterica assessed as inhibition of bacterial growth by two-fold serial broth dilution method. The data set is classed as functional.
Data set [1] deals with Acinetobacter calcoaceticus. The data set can be described thus: Antibacterial activity against Acinetobacter calcoaceticus assessed as inhibition of bacterial growth by two-fold serial broth dilution method. The format is functional.
The next data set has as its system Serratia marcescens. Nature of the data set: Antibacterial activity against Serratia marcescens assessed as inhibition of bacterial growth by two-fold serial broth dilution method. The data set is classed as functional.
In another data set the test system is MDA-MB-435. The data set can be described thus: Cytotoxicity against human MDA-MB-435 cells at 10 uM. The data set is classed as functional.
Another data set concerns A498. The data set can be described thus: Cytotoxicity against human A498 cells at 10 uM. The data set is classed as functional.
The test system of another data set is MDA-MB-468. Nature of the data set: Cytotoxicity against human MDA-MB-468 cells at 10 uM. The data set is classed as functional.
The next data set deals with COLO 205. The data set can be described thus: Cytotoxicity against human COLO 205 cells assessed as inhibition of cell growth at 10 uM. The format is functional.
The test system of a further data set is M14. Nature of the data set: Cytotoxicity against human M14 cells assessed as inhibition of cell growth at 10 uM. The format is functional.
For data set [2], the system named is HEK293. Nature of the data set: Cytotoxicity against human HEK293 cells at 0.01 uM by MTT assay. The data set is classed as toxicity, cell-based. Conditions: hek293, 0.01 µM. A general note: Tetrazolium assays rely on reduction of a dye to a coloured formazan, in cell work by metabolically active cells.
The test system of data set [3] is HEK293. Nature of the data set: Cytotoxicity against human HEK293 cells at 0.1 uM by MTT assay. The format is toxicity, cell-based. To be noted: hek293, 0.1 µM.
Data set [4] concerns HEK293. The data set can be described thus: Cytotoxicity against human HEK293 cells at 1 uM by MTT assay. To be noted: hek293, 1 µM. The data set is classed as toxicity, cell-based.
The subject of data set [5] is HEK293. Nature of the data set: Cytotoxicity against human HEK293 cells at 10 uM by MTT assay. To be noted: hek293, 10 µM. The format is toxicity, cell-based.
Data set [6] relates to HEK293. The data set can be described thus: Cytotoxicity against human HEK293 cells at 100 uM by MTT assay. The format is toxicity, cell-based. Conditions: hek293, 100 µM.

SMILES strings stand for the structures. In brackets after ≈: the same amount, converted by molar mass. Activity calls are given as the source filed them. The calls are words filed in the database; no cut-off is given here.

The source of these data is ChEMBL document CHEMBL5620398, “Membrane-active substituted triazines as antibacterial agents against Staphylococcus aureus with potential for low drug resistance and broad activity” (Eur J Med Chem, 2023).

One may read the inhibition as the share of the control response that was lost under treatment. As for `O=c1[nH]cc(F)c(=O)[nH]1` [FLUOROURACIL], the inhibition at 10 µM was determined as 66.3% in the data set on SK-MEL-5, 50.6% with HOP-92 and 42.3% in the data set on MOLT-4.

As usually defined, the MIC is the lowest concentration that inhibits growth of the organism. Turning to `O=C1c2cccc3cccc(c23)C(=O)N1Nc1nc(N2CCOCC2)nc(N2CCN(c3ccccc3)CC2)n1`, the MIC in the data set on Enterococcus faecalis was 200 µg/mL (≈ 373 µM); with Bacillus subtilis it was 50 µg/mL (≈ 93.2 µM); with Listeria, 0.39 µg/mL (≈ 0.727 µM); with Staphylococcus aureus, 100 µg/mL (≈ 186 µM); with Salmonella enterica, 200 µg/mL (≈ 373 µM); in [1] it was 200 µg/mL (≈ 373 µM). In addition, in the data set with Serratia marcescens, the minimal inhibitory concentration (MIC) was determined as 50 µg/mL (≈ 93.2 µM). Moreover, the MIC result with Escherichia coli is “inactive”. Besides, the Activity is recorded as -12.6% with MDA-MB-435; -3.13% in the data set on A498; -15.85% with MDA-MB-468; 14.05% in the data set with HEK293 [2]; 13.57% in the data set with HEK293 [3]; 13.01% in the data set with HEK293 [4]. Further, the Activity with HEK293 [5] is given as 12%; with HEK293 [6], 10.08%. The inhibition at 10 µM turned out to be 96.5% with COLO 205; 95% in the data set on SK-MEL-5; 92.5% in the data set with HOP-92; 81.6% in the data set on MOLT-4; 80.6% with M14.
